PubChem BioAssay AID256 (DTP/NCI, 2004)
Values joined by “and” are separate entries in the source; they are usually repeats but may differ in a detail not shown here. Equal values may be shown once. Inconclusive results and toxic doses are left out. The calls were made as follows: active = survival T/C of 150% or more; inactive = T/C below 125% in these data.

System: CD2F1 mice, L1210 leukemia ip, survival T/C
Assay: NCI In Vivo Anticancer Drug Screen. Data for tumor model L1210 Leukemia (intraperitoneal) in CD2F1 (CDF1) mice
Conditions: higher = longer survival
Procedure, shortened: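 Transplantable tumor in mice; compound-treated vs vehicle-treated groups. Read-out = treated/control ratio of the measured endpoint.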

[1] = endpoint: mean survival time, dose: 100.0 mg/kg/injection, schedule: Q04DX003 (ip), vehicle: saline
[2] = endpoint: mean survival time, dose: 200.0 mg/kg/injection, schedule: Q04DX003 (ip), vehicle: saline
[3] = endpoint: mean survival time, dose: 400.0 mg/kg/injection, schedule: Q04DX003 (ip), vehicle: saline
[4] = endpoint: mean survival time, dose: 100.0 mg/kg/injection, schedule: Q04DX003 (ip), vehicle: saline with Tween-80
[5] = endpoint: mean survival time, dose: 100.0 mg/kg/injection, schedule: Q01DX009 (ip), vehicle: saline with Tween-80
[6] = endpoint: mean survival time, dose: 200.0 mg/kg/injection, schedule: Q01DX009 (ip), vehicle: saline with Tween-80
[7] = endpoint: mean survival time, dose: 200.0 mg/kg/injection, schedule: Q04DX003 (ip), vehicle: saline with Tween-80
[8] = endpoint: mean survival time, dose: 400.0 mg/kg/injection, schedule: Q01DX009 (ip), vehicle: saline with Tween-80
[9] = endpoint: mean survival time, dose: 400.0 mg/kg/injection, schedule: Q04DX003 (ip), vehicle: saline with Tween-80
[10] = endpoint: mean survival time, dose: 100.0 mg/kg/injection, schedule: Q01DX001 (ip), vehicle: saline with Tween-80
[11] = endpoint: mean survival time, dose: 400.0 mg/kg/injection, schedule: Q01DX001 (ip), vehicle: saline with Tween-80
[12] = endpoint: mean survival time, dose: 100.0 mg/kg/injection, schedule: Q01DX001 (ip), vehicle: saline
[13] = endpoint: mean survival time, dose: 200.0 mg/kg/injection, schedule: Q01DX001 (ip), vehicle: saline
[14] = endpoint: mean survival time, dose: 400.0 mg/kg/injection, schedule: Q01DX001 (ip), vehicle: saline
[15] = endpoint: mean survival time, dose: 75.0 mg/kg/injection, schedule: Q01DX001 (ip), vehicle: saline
[16] = endpoint: mean survival time, dose: 150.0 mg/kg/injection, schedule: Q01DX001 (ip), vehicle: saline
[17] = endpoint: mean survival time, dose: 300.0 mg/kg/injection, schedule: Q01DX001 (ip), vehicle: saline
[18] = endpoint: mean survival time, dose: 25.0 mg/kg/injection, schedule: Q04DX002 (ip), vehicle: saline with Tween-80
[19] = endpoint: mean survival time, dose: 50.0 mg/kg/injection, schedule: Q04DX002 (ip), vehicle: saline with Tween-80
[20] = endpoint: mean survival time, dose: 100.0 mg/kg/injection, schedule: Q04DX002 (ip), vehicle: saline with Tween-80

Measured: T/C

CCSSCCN
inactive: endpoint: mean survival time, dose: 100.0 mg/kg/injection, schedule: Q01DX009 (ip), vehicle: saline 94 % of control | [1] 93 % of control | endpoint: mean survival time, dose: 200.0 mg/kg/injection, schedule: Q01DX009 (ip), vehicle: saline 93 % of control | [2] 89 % of control | endpoint: mean survival time, dose: 400.0 mg/kg/injection, schedule: Q01DX009 (ip), vehicle: saline 102 % of control | [3] 97 % of control

CCCCCOC(=S)S.[Pt]
inactive: endpoint: mean survival time, dose: 6.25 mg/kg/injection, schedule: Q04DX003 (ip), vehicle: saline with Tween-80 101 % of control | endpoint: mean survival time, dose: 12.5 mg/kg/injection, schedule: Q04DX003 (ip), vehicle: saline with Tween-80 104 % of control | endpoint: mean survival time, dose: 25.0 mg/kg/injection, schedule: Q04DX003 (ip), vehicle: saline with Tween-80 108 % of control | endpoint: mean survival time, dose: 50.0 mg/kg/injection, schedule: Q04DX003 (ip), vehicle: saline with Tween-80 101 % of control | [4] 104 % of control

Cc1cc(C)c(C(=O)c2ccccc2-c2ccccc2C(=O)c2c(C)cc(C)cc2C)c(C)c1
inactive: [5] 86 % of control | [4] 96 % of control | [6] 89 % of control | [7] 100 % of control | [8] 91 % of control | [9] 96 % of control

Nc1nc(-c2cccc([N+](=O)[O-])c2)c(N=Nc2ccccc2[N+](=O)[O-])s1
inactive: [10] 96 % of control | [11] 98 % of control

O=C(CCCCl)Nc1cc([N+](=O)[O-])ccc1OCc1ccccc1
inactive: [12] 94 % of control | [13] 94 % of control | [14] 94 % of control

COC(=O)C(C(=O)OC)c1ccc(C)c(OC)c1
inactive: [5] 97 % of control | [4] 104 % of control | [6] 98 % of control | [7] 104 % of control | [8] 97 % of control | [9] 102 % of control

c1ccc2c(-c3cnc(-c4ccc(-c5ncc(-c6cccc7ccccc67)o5)cc4)o3)cccc2c1
inactive: [15] 100 % of control | [16] 102 % of control | [17] 97 % of control

O=C(O)/C=C(/C(=O)O)c1cccn1Cc1ccccc1
inactive: [18] 93 % of control | [19] 101 % of control | [20] 86 % of control and 87 % of control

Cc1cc(Nc2ccccc2)nc(C)n1
inactive: endpoint: mean survival time, dose: 12.5 mg/kg/injection, schedule: Q04DX002 (ip), vehicle: saline with Tween-80 111 % of control | [18] 114 % of control

CC(C)CC(N)C(=O)O (centres undefined) (tested in a mixture with another compound)
inactive: endpoint: median survival time, dose: 3.13 mg/kg/injection, schedule: Q04DX002 (ip), vehicle: saline 111 % of control and 108 % of control | endpoint: median survival time, dose: 6.25 mg/kg/injection, schedule: Q04DX002 (ip), vehicle: saline 105 % of control and 100 % of control and 111 % of control | endpoint: median survival time, dose: 12.5 mg/kg/injection, schedule: Q04DX002 (ip), vehicle: saline 100 % of control and 105 % of control | endpoint: median survival time, dose: 25.0 mg/kg/injection, schedule: Q04DX002 (ip), vehicle: saline 100 % of control and 105 % of control | endpoint: median survival time, dose: 50.0 mg/kg/injection, schedule: Q04DX002 (ip), vehicle: saline 111 % of control and 100 % of control and 108 % of control | endpoint: median survival time, dose: 100.0 mg/kg/injection, schedule: Q04DX002 (ip), vehicle: saline 105 % of control | endpoint: median survival time, dose: 200.0 mg/kg/injection, schedule: Q04DX002 (ip), vehicle: saline 108 % of control | endpoint: median survival time, dose: 400.0 mg/kg/injection, schedule: Q04DX002 (ip), vehicle: saline 96 % of control

CC1(O)CCC(C)(O)CC1 (centres undefined)
inactive: [18] 107 % of control and 103 % of control | [19] 95 % of control and 98 % of control | [20] 107 % of control and 98 % of control | endpoint: mean survival time, dose: 200.0 mg/kg/injection, schedule: Q04DX002 (ip), vehicle: saline with Tween-80 103 % of control

CC(=O)Cc1cc(=O)n(C2OC(COC(=O)c3ccccc3)C(OC(=O)c3ccccc3)C2OC(=O)c2ccccc2)c(=O)[nH]1 (centres undefined)
inactive: endpoint: mean survival time, dose: 12.5 mg/kg/injection, schedule: Q01DX005 (ip), vehicle: distilled water + Tween-80 97 % of control | endpoint: mean survival time, dose: 25.0 mg/kg/injection, schedule: Q01DX005 (ip), vehicle: distilled water + Tween-80 97 % of control | endpoint: mean survival time, dose: 50.0 mg/kg/injection, schedule: Q01DX005 (ip), vehicle: distilled water + Tween-80 105 % of control | endpoint: mean survival time, dose: 100.0 mg/kg/injection, schedule: Q01DX005 (ip), vehicle: distilled water + Tween-80 95 % of control | endpoint: mean survival time, dose: 200.0 mg/kg/injection, schedule: Q01DX005 (ip), vehicle: distilled water + Tween-80 100 % of control

CC(=O)C1=CCC2C3CC=C4CC(OC#N)CCC4(C)C3CCC12C (centres undefined)
inactive: [5] 97 % of control | [6] 92 % of control | [8] 89 % of control

CC12CCC(C(CO)C1=O)C2(C)C (centres undefined)
inactive: [15] 98 % of control | [16] 98 % of control | [17] 98 % of control

CC(C)OC(N)=O
inactive: [12] 94 % of control | [5] 106 % of control | [1] 97 % of control | [13] 102 % of control | [6] 103 % of control | [2] 101 % of control | [14] 100 % of control | [8] 105 % of control | [3] 100 % of control

Nc1nc(Cl)ncc1C1OC(CO)C(O)C1O (centres undefined)
inactive: endpoint: mean survival time, dose: 12.5 mg/kg/injection, schedule: Q01DX005 (ip), vehicle: water 91 % of control | endpoint: mean survival time, dose: 25.0 mg/kg/injection, schedule: Q01DX005 (ip), vehicle: water 95 % of control | endpoint: mean survival time, dose: 50.0 mg/kg/injection, schedule: Q01DX005 (ip), vehicle: water 91 % of control | endpoint: mean survival time, dose: 100.0 mg/kg/injection, schedule: Q01DX005 (ip), vehicle: water 87 % of control | endpoint: mean survival time, dose: 200.0 mg/kg/injection, schedule: Q01DX005 (ip), vehicle: water 98 % of control

CCCCNc1ncnc2c1cnn2C
inactive: endpoint: mean survival time, dose: 4.0 mg/kg/injection, schedule: Q01DX Z (ip), vehicle: saline 97 % of control | endpoint: mean survival time, dose: 8.0 mg/kg/injection, schedule: Q01DX Z (ip), vehicle: saline 96 % of control | endpoint: mean survival time, dose: 12.5 mg/kg/injection, schedule: Q01DX005 (ip), vehicle: saline with Tween-80 94 % of control | endpoint: mean survival time, dose: 16.0 mg/kg/injection, schedule: Q01DX Z (ip), vehicle: saline 100 % of control | endpoint: mean survival time, dose: 25.0 mg/kg/injection, schedule: Q01DX005 (ip), vehicle: saline with Tween-80 100 % of control | endpoint: mean survival time, dose: 31.0 mg/kg/injection, schedule: Q01DX Z (ip), vehicle: saline 103 % of control | endpoint: mean survival time, dose: 50.0 mg/kg/injection, schedule: Q01DX005 (ip), vehicle: saline with Tween-80 104 % of control | endpoint: mean survival time, dose: 100.0 mg/kg/injection, schedule: Q01DX005 (ip), vehicle: saline with Tween-80 98 % of control | endpoint: mean survival time, dose: 200.0 mg/kg/injection, schedule: Q01DX005 (ip), vehicle: saline with Tween-80 100 % of control | endpoint: median survival time, dose: 31.3 mg/kg/injection, schedule: Q01DX009 (ip), vehicle: saline 100 % of control | endpoint: median survival time, dose: 62.5 mg/kg/injection, schedule: Q01DX009 (ip), vehicle: saline 100 % of control | endpoint: median survival time, dose: 125.0 mg/kg/injection, schedule: Q01DX009 (ip), vehicle: saline 105 % of control

Cc1ncc(CO)c(/C=N/NC(N)=S)c1O
inactive: [12] 101 % of control | [13] 100 % of control | [14] 101 % of control

CCc1cc2c(cc1C(=O)/C=C\c1cccc3ccccc13)C(C)(C)CCC2(C)C
inactive: endpoint: mean survival time, dose: 6.25 mg/kg/injection, schedule: Q01DX009 (ip), vehicle: saline with Tween-80 94 % of control | endpoint: mean survival time, dose: 12.5 mg/kg/injection, schedule: Q01DX009 (ip), vehicle: saline with Tween-80 86 % of control | endpoint: mean survival time, dose: 25.0 mg/kg/injection, schedule: Q01DX009 (ip), vehicle: saline with Tween-80 93 % of control

Fc1ccc(NC2(c3nnnn3C3CCCCC3)CCN(Cc3ccccc3)CC2)cc1
inactive: [10] 95 % of control | endpoint: mean survival time, dose: 200.0 mg/kg/injection, schedule: Q01DX001 (ip), vehicle: saline with Tween-80 102 % of control | [11] 101 % of control

CCCCCCCCCCCCCCCC[N+]1(CC)CC[N+](CC)(CCCCCCCCCCCCCCCC)CC1 (centres undefined)
inactive: endpoint: mean survival time, dose: 100.0 mg/kg/injection, schedule: Q04DX003 (ip), vehicle: Klucel (hydroxypropylcellulose) (HPC) 96 % of control | endpoint: mean survival time, dose: 200.0 mg/kg/injection, schedule: Q04DX003 (ip), vehicle: Klucel (hydroxypropylcellulose) (HPC) 90 % of control | endpoint: mean survival time, dose: 400.0 mg/kg/injection, schedule: Q04DX003 (ip), vehicle: Klucel (hydroxypropylcellulose) (HPC) 100 % of control

CC12CCC3c4ccc(O)cc4CCC3C1CCC2S (centres undefined)
inactive: [4] 88 % of control | [7] 92 % of control
